One series relates to pERK level in H358 cells. Briefly: pERK and ERK protein content assay in H358 cells (ELISA). Type of series: cell-based. To be noted: 24 h, pERK/ERK ratio compared with DMSO group; for inhibition at 1 µM: Homo sapiens, NCI-H358, compound 1 μM, read-out: Inhibition rate (%) of pERK level. The method in brief: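 H358 cells grown one day, then treated 24 h with compound at 1 μM. pERK and ERK in lysates measured by ELISA; pERK/ERK ratio expressed as percent inhibition versus DMSO.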
In general terms: In an ELISA, binding on a coated surface is turned into a signal by an enzyme label.

Series [1] can be described thus: Pharmacokinetic evaluation in mice. Type of series: in vivo, male ICR mice. To be noted: for F: po 10 mg/kg vs iv 2 mg/kg; for Vd: read-out: Vss. The protocol:
The compounds were administered by intravenous injection at a dose of 2 mg/kg and oral gavage at a dose of 10 mg/kg (0.5% CMC-Na suspension). 15 male ICR mice were selected for each group, and each mouse was subjected to blood collection at 3 discrete time points, with 3 mice per time point. The time points of sampling were as follows: before the administration, and at 5 min, 15 min, 30 min, 1 h, 3 h, 5 h, 8 h, 12 h and 24 h after the administration. 80 μL of blood was collected from the eye sockets or the hearts of the mice at each of the time points after the administration. All whole blood samples were collected in tubes containing EDTA K2 and centrifuged (1500-1600 rmp) at 4° C. for 10 min to isolate plasma, which was then stored in a refrigerator at −90 to −60° C. for sample analysis. The compound concentration in the plasma was determined by liquid chromatography-tandem mass spectrometry, and the corresponding pharmacokinetic parameters were obtained according to a plasma concentration-time curve.

Series [2] has as its system Human pancreatic cancer Mia PaCa-2 cells. Briefly: Antitumor activity on graft tumors of human pancreatic cancer Mia PaCa-2 in nude mice. Type of series: in vivo. To be noted: Mia PaCa-2 graft tumors in nude mice, 10 mg/kg intragastric, qd*21. The procedure:
Human pancreatic cancer Mia PaCa-2 cells were cultured conventionally in 1640 medium containing 10% fetal bovine serum in a 37° C./5% CO2 incubator. After passage, the cells were collected when they reached the desired amount. 1×10^7 Mia PaCa-2 cells were injected into the left dorsal side of each nude mouse, and the animals were randomly grouped for administration after tumors grew to 150 mm3. The groups are as follows: 1) a solvent control group of 8 mice; and 2) compound 1 group, compound 2 group, compound 5 group, compound 31 group, compound 131 group, compound 142 group, compound 171 group, compound B group and compound C group, with 8 mice per group. Mice in the solvent control group were subjected to intragastric administration of 0.5% CMC-Na once daily; mice in compound 1 group, compound 2 group, compound 5 group, compound 31 group, compound 131 group, compound 142 group, compound 171 group, compound B group and compound C group were subjected to intragastric administration of a suspension of a compound in 0.5% CMC-Na once daily. On Tuesday and Thursday each week, tumor volumes and body weight of the mice were measured, and the nude mice were sacrificed on day 21 of administration.

The test system of a further series is H358 cells. Put plainly: Antiproliferative activity against H358 cells (Cell Titer Glow, ultra-low attachment plate). Type of series: cell-based. To be noted: three days after addition of compound. The procedure:
2500 H358 cells were seeded in a 96-well ultra-low attachment plate (corning, 7007). After one day of growth, a serially diluted compound (a maximum concentration of 5 μM, 5-fold dilution, a total of five doses) was added. Three days after the addition of the compound, Cell Titer Glow (Promega, G9681) was added to evaluate pellet growth, and the IC50 value was calculated.

Series [3] relates to phosphorylated ERK (pERK) level in H358 cells. Put plainly: pERK level assay by western blot in H358 cells. Type of series: cell-based. The following applies: overnight incubation, same concentration, FIG. 1. The procedure:
H358 cells were plated on to a 24-well plate at 2×10^5 cells/well. Serially diluted compounds including AMG510, MRTX849, compound 142 and compound 171 were added. After overnight incubation, cells were lysed, and proteins were quantified and subjected to gel electrophoresis.

[4] abbreviates: po, 10 mg/kg, 0.5% CMC-Na suspension.
The mark [5] stands for this setting: male, ICR, mouse, plasma, iv, 2 mg/kg.
[6] abbreviates: male, ICR, mouse, plasma, iv, 2 mg/kg, read-out: Cmax.
Where [7] appears, read: male, ICR, mouse, plasma, iv, 2 mg/kg, read-out: Tmax.
The mark [8] stands for this setting: male, ICR, mouse, plasma, po, 10 mg/kg, 0.5% CMC-Na suspension.
Setting [9] is: male, ICR, mouse, plasma, po, 10 mg/kg, 0.5% CMC-Na suspension, read-out: Cmax.
Where [10] appears, read: male, ICR, mouse, plasma, po, 10 mg/kg, 0.5% CMC-Na suspension, read-out: Tmax.
The mark [11] stands for this setting: Homo sapiens, NCI-H358, 72 h, 96-well ultra-low attachment plate, Cell Titer Glow.

Molecules are shown by their SMILES. Like-named read-outs stand apart in the source and are kept apart here.

Broadly, the Cmax is the highest concentration seen after dosing. Usually Tmax stands for the time at which the peak concentration occurs. A word on the Vss: it is a proportionality between amount in the body and measured concentration, not a real space. A low value points to little distribution into tissue. As usually defined, the IC50 is the concentration at which inhibition is half-maximal. A high value points to weaker potency. Turning to `C=CC(=O)N1CC2(CCN(c3nc(N4CC(N(C)C)C4)nc4c(OCC(F)(F)F)c(-c5c(C)ccc6[nH]ncc56)c(C=C)cc34)CC2)C1` [Compound C, reference compound], the “Inhibition rate (%) of pERK level” value with pERK level in H358 cells (compound 1 μM) is “+++ (+++ indicates an inhibition rate greater than 90%.)”. In series [1] (iv, 2 mg/kg), the Cl was 1.65 mL/min/kg, the Cmax stood at 3210 ng/mL, the Tmax was found to be 0.083 h and the Vss came to 0.481 L/kg. The same compound returned a t1/2 in series [1] (iv, 2 mg/kg) of 4.02 h. Besides, the F in series [1] was determined as 24.6%. Further, in series [1] (setting [4]), the Cmax came out at 3110 ng/mL, the time to peak (Tmax) is given as 0.5 h and the t1/2 is given as 3.38 h. Also, in series [2], the “Anti-tumor effect (regression)” value is recorded as 8% regression. Moreover, the 50% inhibitory concentration (IC50) in the series on H358 cells (96-well ultra-low attachment plate, Cell Titer Glow) was less than 300 nM. Besides, in the series with H358 cells, the IC50 worked out at 5.1 nM.

As usually defined, the inhibition is the drop in the measured response relative to a control, in per cent. What is called AUC(0-t) is the area under the concentration-time curve up to a stated or last time point. The clearance is the rate of elimination divided by the concentration. Low values mean a low capacity for elimination, high ones a high capacity for elimination. In general, half-life refers to how long it takes for the measured level to halve. On to `C=CC(=O)N1CC2(CCN(c3nc(OC4CC5(CCN(CCOC)CC5)C4)nc4c(OCC(F)(F)F)c(-c5c(C)ccc6[nH]ncc56)c(C5CC5)cc34)CC2)C1` [Compound 131], for which, in the series on pERK level in H358 cells, the inhibition at 1 µM is more than 90%. The AUC(0-t) in series [1] (setting [5]) came out at 11300 ng·h/mL; in series [1] (setting [8]), 22300 ng·h/mL. In series [1] (setting [5]), this compound had a clearance of 1.87 mL/min/kg. Also, the half-life in series [1] (setting [5]) was 4.12 h; in series [1] (setting [8]), 5.86 h. Moreover, the maximum concentration (Cmax) in series [1] (setting [6]) came out at 2350 ng/mL; in series [1] (setting [9]), 1820 ng/mL. The Tmax came out at 0.5 h in series [1] (setting [7]) and 2 h in series [1] (setting [10]). Moreover, the Vd in series [1] (setting [5]) amounted to 2.1 L/kg. For the same compound, the F in series [1] amounted to 39.4%. Moreover, the “Anti-tumor effect (regression)” value in series [2] turned out to be 37% regression. In addition, the IC50 in the series on H358 cells (setting [11]) is less than 300 nM; in the series on H358 cells (Homo sapiens, NCI-H358, 72 h), 1.5 nM.

For the compound `C=CC(=O)N1CC2(CCN(c3nc(N4CC(N5CCC5)C4)nc4c(OCC(F)(F)F)c(-c5c(C)ccc6[nH]ncc56)c(C5CC5)cc34)CC2)C1` [Compound 142], the “inhibition of the phosphorylated ERK (pERK) level in cells compared with AMG510 and MRTX849” value in series [3] is listed as “stronger inhibition”. Moreover, in the series with pERK level in H358 cells, the inhibition at 1 µM is more than 90%. Moreover, the AUC(0-t) in series [1] (setting [5]) amounted to 52000 ng·h/mL; in series [1] (setting [8]) it was 46000 ng·h/mL. The compound also showed a clearance in series [1] (setting [5]) of 0.642 mL/min/kg. The values for the half-life in series [1] (setting [5]) and in series [1] (setting [8]) were 3.31 h and 3.89 h, respectively. Further, the Cmax was determined as 13100 ng/mL in series [1] (setting [6]) and 6730 ng/mL in series [1] (setting [9]). Also, the Tmax in series [1] (setting [7]) came to 0.083 h; in series [1] (setting [10]), 2 h. Further, in series [1] (setting [5]), the Vd is 0.187 L/kg. In series [1], this compound had an F of 17.7%. The “Anti-tumor effect (regression)” value in series [2] stood at 35% regression. Besides, the half-inhibitory concentration (IC50) in the series on H358 cells (setting [11]) was less than 300 nM; in the series on H358 cells (Homo sapiens, NCI-H358, 72 h), 2.5 nM.

For `C=CC(=O)N1CC2(CCN(c3nc(N4CC(N5CCCC5)C4)nc4c(OCC(F)(F)F)c(-c5c(C)ccc6[nH]ncc56)c(C5CC5)cc34)CC2)C1` [Compound 171], the inhibition at 1 µM with pERK level in H358 cells is more than 90%. The figures for the AUC(0-t) in series [1] (setting [5]) and in series [1] (setting [8]) were 26500 ng·h/mL and 35700 ng·h/mL, respectively. The compound also had a clearance in series [1] (setting [5]) of 1.26 mL/min/kg. The half-life is 4.85 h in series [1] (setting [5]) and 3.93 h in series [1] (setting [8]). The Cmax in series [1] (setting [6]) was found to be 4910 ng/mL; in series [1] (setting [9]) it was 3320 ng/mL. Moreover, the Tmax in series [1] (setting [7]) stood at 0.083 h; in series [1] (setting [10]) it was 2 h. For the same compound, the Vd in series [1] (setting [5]) stood at 0.505 L/kg. The compound further returned a F in series [1] of 26.9%. In addition, the “Anti-tumor effect (regression)” value in series [2] came to 38% regression. For the same compound, the IC50 was less than 300 nM in the series on H358 cells (setting [11]) and 1.4 nM in the series with H358 cells (Homo sapiens, NCI-H358, 72 h).

These data come from patent US12479843B2, “Spiro ring-containing quinazoline compounds” (WIGEN BIOMEDICINE TECHNOLOGY (SHANGHAI) CO., LTD., priority 2019, dated 2025).
